Measured values: patent US9615574B2, “Compositions of dibromomalonamide and their use as biocides” (Dow Global Technologies LLC, priority 2013, dated 2017)

Tests used:
[1] = test system: Desulfovibrio longus ATCC 51456; experiment: MBC of DBMAL, THPS and blends against anaerobic bacteria, 24 hour contact time; type: cell-based; settings: alone or in the blend, 40° C., 10^7 to 10^8 CFU/mL
Experimental: (§1) The synergism of the biocides combination of the present invention was determined using the method described by Kull, F. C, et al. in Applied Microbiology 9:538-541 (1961).
Inside an anaerobic chamber (Bactron anaerobic chamber), a deoxygenated sterile salt solution (3.1183 g of NaCl, 1.3082 mg of NaHCO3, 47.70 mg of KCl, 72.00 mg of CaCl2, 54.49 mg of MgSO4, 172.28 mg of Na2SO4, 43.92 mg of Na2CO3 in 1 L water, pH was adjusted to 7) was inoculated with Desulfovibrio longus ATCC 51456 to a final bacterial concentration of 10^7 to 10^8 CFU/mL. Aliquots of this cell suspension were then treated with DBMAL, THPS, and DBMAL/THPS blends, at selected active concentrations. After the treated cell suspensions were incubated at 40° C. for 24 hours, viable bacteria in each treated and untreated (control) cell suspensions were enumerated using a serial dilution method in Modified Baar's Medium (2.0 g of MgSO4, 5.7 g of Sodium citrate.2H2O, 1.0 g of CaSO4, 1.0 g of NH4Cl, 3.5 g of Sodium lactate, 1.0 g of Yeast extract, 0.5 g of K2HPO4, 0.1 g of Sodium Thioglycolate, 0.02 g of Fe(NH4)2(SO4)2, 20 g of NaCl in 1 L deionized water). The biocidal efficacy was determined by minimum tested biocide concentration for bacteria kill in the aliquots (MBC).
Table 1 summarizes the synergistic effect of each biocide and their blends, and the Synergy Index of each combination.

[2] = test system: Pseudomonas aeruginosa ATCC 10145 and Staphylococcus aureus ATCC 6538; experiment: MBC of DBMAL, THPS and blends against aerobic bacteria, 1 hr and 2 hr contact time; type: cell-based; settings: alone or in the blend; for MBC (ppm active) DBMAL: DBMAL concentration; for MBC (ppm active) THPS: THPS concentration
Experimental: as §1
Sterile salt solution (0.2203 g of CaCl2, 0.1847 g of MgSO4, and 0.2033 g of NaHCO3 in 1 L water, adjust pH to 7.4) was inoculated with approximately 10^7 CFU/mL of Pseudomonas aeruginosa ATCC 10145 and Staphylococcus aureus ATCC 6538.
Aliquots of the cell suspension were then treated with DBMAL, THPS, and combinations of these actives at selected concentrations.
After incubating at 37° C. for 1 hr, viable bacteria in each treated and untreated (control) cell suspensions were enumerated using a serial dilution method in Tryptic Soy Broth. The biocidal efficacy was determined by minimum biocide concentration for bacteria kill in the aliquots (MBC). Synergy Index was then calculated. Table 2 summarizes the MBC of each biocide and their blends, and the Synergy Index of each combination.
The same test procedure in Example 2 was used to evaluate the biocidal efficacy of DBMAL, THPS and their blends against aerobic bacteria in a 2-hr contact assay. Table 3 summarizes the MBC of each biocide and their blends, and the Synergy Index of each combination.

Compound	MBC (ppm active) DBMAL ([1]; DBMAL concentration)	MBC (ppm active) DBMAL ([2]; 2-hr contact assay)	MBC (ppm active) DBMAL ([2]; 37° C., 1 hr contact time)	MBC (ppm active) THPS ([1]; THPS concentration)	MBC (ppm active) THPS ([2]; 2-hr contact assay)	MBC (ppm active) THPS ([2]; 37° C., 1 hr contact time)
NC(=O)C(Br)(Br)C(N)=O [1:0, 2,2-dibromomalonamide]	200.0 ppm active	77.8 ppm active	>100.0 ppm active			
tetrakis(hydroxymethyl)phosphonium sulfate [0:1]				50.0 ppm active	29.6 ppm active	100.0 ppm active
